Measured values from ChEMBL document CHEMBL4152251, “Lactam hybrid analogues of solonamide B and autoinducing peptides as potent S. aureus AgrC antagonists” (Eur J Med Chem, 2018).
Active and inactive are the calls of the source. The calls are words filed in the database; no cut-off is given here. Bridge positions count the residues as written; N and C are the ends. Square brackets hold non-standard residues; d marks the D form. Peptide text beside a SMILES is read from it. * marks the point of attachment. Decanoyl(3,6,9-trioxa) = COCCOCCOCC(=O)*; Decanoyl = CCCCCCCCCC(=O)*; Heptanoyl = CCCCCCC(=O)*; Orn = NCCC[C@H](N)C(=O)O; Dab = NCC[C@H](N)C(=O)O; Dap = NC[C@H](N)C(=O)O

Key:
[1] = target: T1, Receptor-histidine kinase AgrC (Staphylococcus aureus) (UniProt O07911); experiment: Inhibition of AIP-stimulated quorum sensing system AgrC activation in Staphylococcus aureus RN10829 harboring P3:blaZ fusion assessed as reduction in beta-lactamse activity at 5 ug/ml preincubated with organism followed by AIP addition measured after 45 mins by nitrocefin hydrolysis assay
T1 sequence (whole entry): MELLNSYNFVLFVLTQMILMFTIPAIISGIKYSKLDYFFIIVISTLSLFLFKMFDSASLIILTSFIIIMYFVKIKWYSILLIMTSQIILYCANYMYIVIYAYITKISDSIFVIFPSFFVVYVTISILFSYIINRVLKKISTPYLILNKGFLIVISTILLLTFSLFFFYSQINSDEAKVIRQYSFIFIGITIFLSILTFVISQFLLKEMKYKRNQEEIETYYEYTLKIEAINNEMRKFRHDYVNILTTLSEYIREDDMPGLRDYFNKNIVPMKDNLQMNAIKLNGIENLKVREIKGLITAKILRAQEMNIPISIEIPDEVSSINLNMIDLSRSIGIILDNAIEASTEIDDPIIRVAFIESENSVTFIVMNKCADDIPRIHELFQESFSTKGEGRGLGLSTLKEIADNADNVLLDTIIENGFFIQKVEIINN

[2] = target: T2, Receptor-histidine kinase AgrC (Staphylococcus aureus, UniProt O07911); experiment: Inhibition of AIP-stimulated quorum sensing system AgrC activation in Staphylococcus aureus RN10829 harboring P3:blaZ fusion assessed as reduction in beta-lactamse activity preincubated with organism followed by AIP addition measured after 45 mins by nitrocefin hydrolysis assay
T2 sequence (O07911 whole entry): T1 sequence (whole entry)

SMILES	inhibition [1]	IC50 [2] [nM]
CCCCCCC(=O)N[C@@H]1CNC(=O)[C@@H](CC(C)C)NC(=O)[C@@H](C)NC(=O)[C@@H](CC(C)C)NC(=O)[C@@H](Cc2c[nH]c3ccccc23)NC1=O	inactive	–
CCCCCCC(=O)N[C@@H]1CNC(=O)[C@@H](CC(C)C)NC(=O)[C@@H](CC(C)C)NC(=O)[C@@H](CC(C)C)NC(=O)[C@@H](Cc2ccccc2)NC1=O	inactive	–
CCCCCCCC(=O)N[C@@H]1CNC(=O)[C@@H](CC(C)C)NC(=O)[C@@H](C)NC(=O)[C@@H](CC(C)C)NC(=O)[C@@H](Cc2ccccc2)NC1=O	Active	457
CCCCCCC(=O)N[C@@H]1CNC(=O)[C@@H](CC(C)C)NC(=O)[C@@H](C)NC(=O)[C@@H](CC(C)C)NC(=O)[C@@H](Cc2ccccc2)NC1=O	Active	622
CCCCCCC(=O)N[C@@H]1CNC(=O)[C@@H](CC(C)C)NC(=O)[C@@H](C)NC(=O)[C@@H](Cc2ccccc2)NC(=O)[C@@H](Cc2ccccc2)NC1=O	Active	739
CCCCCCC(=O)N[C@H]1CNC(=O)[C@H](Cc2ccccc2)NC(=O)[C@H](C)NC(=O)[C@H](CC(C)C)NC(=O)[C@H](CC(C)C)NC1=O	Active	–
CCCCCCC(=O)N[C@H]1CNC(=O)[C@H](CC(C)C)NC(=O)[C@H](C)NC(=O)[C@H](CC(C)C)NC(=O)[C@H](Cc2ccccc2)NC1=O	Active	19100
CCCCCCC(=O)N[C@@H]1CNC(=O)[C@@H](CC(C)C)NC(=O)[C@@H](C)NC(=O)[C@@H](CC(C)C)NC(=O)[C@@H](CCc2ccccc2)NC1=O	inactive	–
CCCCCC(=O)N[C@@H]1CNC(=O)[C@@H](CC(C)C)NC(=O)[C@@H](C)NC(=O)[C@@H](CC(C)C)NC(=O)[C@@H](Cc2ccccc2)NC1=O	Active	1430
CCCCCCC(=O)N[C@@H]1CNC(=O)[C@@H](CC(C)C)NC(=O)[C@@H](C)NC(=O)[C@@H](CC(C)C)NC(=O)[C@@H](Cc2cccc3ccccc23)NC1=O	inactive	–
CCCCCCC(=O)N[C@@H]1CNC(=O)[C@@H](C)NC(=O)[C@@H](C)NC(=O)[C@@H](CC(C)C)NC(=O)[C@@H](Cc2ccccc2)NC1=O	Active	69100
CCCCCCC(=O)N[C@@H]1CNC(=O)[C@@H](CCC(C)C)NC(=O)[C@@H](C)NC(=O)[C@@H](CC(C)C)NC(=O)[C@@H](Cc2ccccc2)NC1=O	Active	913
CCCCCCC(=O)N[C@@H]1CNC(=O)[C@@H](CC(C)C)NC(=O)CNC(=O)[C@@H](CC(C)C)NC(=O)[C@@H](Cc2ccccc2)NC1=O	inactive	–
COCCOCCOCC(=O)N[C@H]1CNC(=O)[C@H](CC(C)C)NC(=O)[C@H](C)NC(=O)[C@H](CC(C)C)NC(=O)[C@H](Cc2ccccc2)NC1=O ({Decanoyl(3,6,9-trioxa)}-[Dap]FLAL; lactam 1-C)	inactive	–
CCCCCCC(=O)N[C@@H]1CNC(=O)[C@@H](CC(C)C)NC(=O)[C@H](C)NC(=O)[C@H](CC(C)C)NC(=O)[C@@H](Cc2ccccc2)NC1=O	inactive	–
CCCCCCCCCC(=O)N[C@H]1CNC(=O)[C@H](CC(C)C)NC(=O)[C@H](C)NC(=O)[C@H](CC(C)C)NC(=O)[C@H](Cc2ccccc2)NC1=O (Decanoyl-[Dap]FLAL; lactam 1-C)	Active	–
CCCCCCC(=O)N[C@@H]1CNC(=O)[C@@H](Cc2ccccc2)NC(=O)[C@@H](C)NC(=O)[C@@H](CC(C)C)NC(=O)[C@@H](CC(C)C)NC1=O	inactive	–
CC(=O)NCC(=O)NCC(=O)NCC(=O)N[C@H]1CNC(=O)[C@H](CC(C)C)NC(=O)[C@H](C)NC(=O)[C@H](CC(C)C)NC(=O)[C@H](Cc2ccccc2)NC1=O (Ac-GGG[Dap]FLAL; lactam 4-C)	inactive	–
CCCCCCC(=O)N[C@H]1CCCCNC(=O)[C@H](CC(C)C)NC(=O)[C@H](C)NC(=O)[C@H](CC(C)C)NC(=O)[C@H](Cc2ccccc2)NC1=O (Heptanoyl-KFLAL; lactam 1-C)	inactive	–
CCCCCCC(=O)N[C@@H]1CNC(=O)[C@@H](CC(C)C)NC(=O)[C@@H](C)NC(=O)[C@@H](CCC(C)C)NC(=O)[C@@H](Cc2ccccc2)NC1=O	Active	609
CC(=O)N[C@H]1CNC(=O)[C@H](CC(C)C)NC(=O)[C@H](C)NC(=O)[C@H](CC(C)C)NC(=O)[C@H](Cc2ccccc2)NC1=O (Ac-[Dap]FLAL; lactam 1-C)	inactive	–
CCCCCCC(=O)N[C@@H]1CNC(=O)[C@@H](CC(C)C)NC(=O)[C@@H](C)NC(=O)[C@@H](CC(C)C)NC(=O)[C@@H](C)NC1=O	Active	–
CCCCCCC(=O)N[C@H]1CNC(=O)[C@H](CC(C)C)NC(=O)[C@@H](C)NC(=O)[C@@H](CC(C)C)NC(=O)[C@H](Cc2ccccc2)NC1=O	inactive	–
CCCCCCC(=O)N[C@@H]1CNC(=O)[C@@H](CC(C)C)NC(=O)[C@@H](C)NC(=O)[C@@H](C)NC(=O)[C@@H](Cc2ccccc2)NC1=O	Active	–
CCCCCCC(=O)N[C@H]1CCCNC(=O)[C@H](CC(C)C)NC(=O)[C@H](C)NC(=O)[C@H](CC(C)C)NC(=O)[C@H](Cc2ccccc2)NC1=O (Heptanoyl-[Orn]FLAL; lactam 1-C)	inactive	–
CCCCCCCCCCCC(=O)N[C@@H]1CNC(=O)[C@@H](CC(C)C)NC(=O)[C@@H](C)NC(=O)[C@@H](CC(C)C)NC(=O)[C@@H](Cc2ccccc2)NC1=O	Active	–
CCCCCCC(=O)N[C@H]1CCNC(=O)[C@H](CC(C)C)NC(=O)[C@H](C)NC(=O)[C@H](CC(C)C)NC(=O)[C@H](Cc2ccccc2)NC1=O (Heptanoyl-[Dab]FLAL; lactam 1-C)	inactive	–
